Source: publication PMC7932537, “Quantitative profiling of protease specificity” (PLoS Computational Biology, 2021)

Tests used:
MMP-9 = MMP-9 (Homo sapiens, UniProt P14780); experiment: K(obs) of individual phage substrates (set of 1369); assay type: biochemical; conditions: MMP9
MMP-2 [1] = biological target: T1, MMP-2 (Homo sapiens, UniProt P08253); experiment: as above; assay type: biochemical; conditions: MMP2
T1 sequence (P08253 110-660): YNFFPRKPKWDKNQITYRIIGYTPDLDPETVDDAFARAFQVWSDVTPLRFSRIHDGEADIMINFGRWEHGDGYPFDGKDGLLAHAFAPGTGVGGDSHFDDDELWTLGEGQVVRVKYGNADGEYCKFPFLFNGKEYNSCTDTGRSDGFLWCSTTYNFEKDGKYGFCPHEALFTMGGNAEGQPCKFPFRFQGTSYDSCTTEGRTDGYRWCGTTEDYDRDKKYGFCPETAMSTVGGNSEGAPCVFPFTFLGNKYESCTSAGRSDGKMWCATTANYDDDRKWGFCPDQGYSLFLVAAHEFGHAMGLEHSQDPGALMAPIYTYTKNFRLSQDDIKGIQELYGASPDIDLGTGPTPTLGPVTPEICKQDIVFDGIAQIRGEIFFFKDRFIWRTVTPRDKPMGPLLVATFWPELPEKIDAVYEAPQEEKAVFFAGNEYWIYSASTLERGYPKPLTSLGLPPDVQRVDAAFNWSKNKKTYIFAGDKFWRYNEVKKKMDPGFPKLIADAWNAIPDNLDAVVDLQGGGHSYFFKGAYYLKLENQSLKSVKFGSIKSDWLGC

MMP-2 [2] = experiment: Substrate phage display with NGS: relative probability (RP) of P3-P1' tetramer clusters; assay type: biochemical, human; conditions: MMP2;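 note: ratio of tetramer probability after protease selection to that in naive phage library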
[3] = individual phage substrate of the set of 1369 peptides, dash in the sequence marks the cleavage position
[4] = individual phage substrate of the set of 1369 peptides, cleavage position marked by '-'
[5] = RP of the P3-P1' tetramer contained in the substrate
[6] = individual phage substrates, set of 1369 peptides, hyphen in sequence marks cleavage position
[7] = individual phage substrates, set of 1369 peptides, cleavage position marked by hyphen in sequence
[8] = RP of the P3-P1' tetramer contained in the substrate (substrate phage display with NGS)

MMP-9, sequence (P14780 94-707): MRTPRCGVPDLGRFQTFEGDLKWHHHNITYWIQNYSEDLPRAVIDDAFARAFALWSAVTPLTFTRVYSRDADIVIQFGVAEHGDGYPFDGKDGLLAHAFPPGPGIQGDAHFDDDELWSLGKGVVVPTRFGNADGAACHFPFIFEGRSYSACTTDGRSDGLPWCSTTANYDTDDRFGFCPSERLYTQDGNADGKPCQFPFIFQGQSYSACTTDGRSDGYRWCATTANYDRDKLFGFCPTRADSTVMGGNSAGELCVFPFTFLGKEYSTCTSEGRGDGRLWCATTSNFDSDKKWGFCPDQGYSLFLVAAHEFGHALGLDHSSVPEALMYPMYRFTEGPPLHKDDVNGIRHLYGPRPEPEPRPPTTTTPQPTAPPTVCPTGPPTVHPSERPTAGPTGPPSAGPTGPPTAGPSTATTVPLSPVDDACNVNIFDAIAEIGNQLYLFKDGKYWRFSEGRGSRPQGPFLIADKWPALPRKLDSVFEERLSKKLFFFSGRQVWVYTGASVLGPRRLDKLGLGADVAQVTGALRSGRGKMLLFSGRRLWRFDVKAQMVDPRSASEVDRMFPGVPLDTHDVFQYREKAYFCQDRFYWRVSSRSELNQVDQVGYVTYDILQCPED

Substance	Kobs (MMP-9; [3])	Kobs (MMP-2 [1]; [4])	Kobs (MMP-9; [6])	Kobs (MMP-2 [1]; [7])	relative probability (RP) (MMP-2 [2]; [5])	relative probability (RP) (MMP-2 [2]; [8])
RSHAS-LTASG	–	–	0 M⁻¹ s⁻¹	12792.1 M⁻¹ s⁻¹	–	26.2573
WRYSN-LTASG	–	–	0 M⁻¹ s⁻¹	8941.32 M⁻¹ s⁻¹	–	25.2832
PKGYA-LTASG	3850.82 M⁻¹ s⁻¹	2615.58 M⁻¹ s⁻¹	–	–	0.5867	–
GLPDF-LTASG	–	–	0 M⁻¹ s⁻¹	0 M⁻¹ s⁻¹	–	1.02
GRLAS-LTASG	–	–	0 M⁻¹ s⁻¹	12792.1 M⁻¹ s⁻¹	–	31.1996
GFWSS-LRTAS	0 M⁻¹ s⁻¹	5461.43 M⁻¹ s⁻¹	–	–	16.6561	–
GAPRS-LVTAS	12792.1 M⁻¹ s⁻¹	12792.1 M⁻¹ s⁻¹	–	–	33.3704	–
RLPVA-ITASG	12792.1 M⁻¹ s⁻¹	12792.1 M⁻¹ s⁻¹	–	–	32.4892	–
YSPMD-YTASG	12792.1 M⁻¹ s⁻¹	1660.66 M⁻¹ s⁻¹	–	–	10.9087	–
LVGNS-LTASG	–	–	0 M⁻¹ s⁻¹	1981.53 M⁻¹ s⁻¹	–	0.2884
SGGSG-LRILQ	0 M⁻¹ s⁻¹	0 M⁻¹ s⁻¹	–	–	1.9698	–
TATNW-LTASG	0 M⁻¹ s⁻¹	5461.43 M⁻¹ s⁻¹	–	–	15.348	–
SLVLN-MTASG	–	–	4613.14 M⁻¹ s⁻¹	3438.54 M⁻¹ s⁻¹	–	19.025
EVARA-WTASG	–	–	1513.13 M⁻¹ s⁻¹	7386.83 M⁻¹ s⁻¹	–	17.4628
LLYMG-LTASG	–	–	799.117 M⁻¹ s⁻¹	874.197 M⁻¹ s⁻¹	–	0.09823
GSPMH-LITAS	–	–	9740.44 M⁻¹ s⁻¹	6688.74 M⁻¹ s⁻¹	–	30.095

Substance	Kobs (MMP-9; [3])	Kobs (MMP-2 [1]; [4])	Kobs (MMP-9; [6])	Kobs (MMP-2 [1]; [7])	relative probability (RP) (MMP-2 [2]; [5])	relative probability (RP) (MMP-2 [2]; [8])
SGVLG-LIGTA	–	–	12792.1 M⁻¹ s⁻¹	12792.1 M⁻¹ s⁻¹	–	24.4128
RIPRF-LTASG	12792.1 M⁻¹ s⁻¹	12792.1 M⁻¹ s⁻¹	–	–	28.4443	–
KMVYM-LTASG	–	–	3438.54 M⁻¹ s⁻¹	1561.44 M⁻¹ s⁻¹	–	5.094
SGAHG-LLTTA	142.481 M⁻¹ s⁻¹	1112.44 M⁻¹ s⁻¹	–	–	23.6336	–
KGPEM-LTASG	–	–	5667.28 M⁻¹ s⁻¹	3637.04 M⁻¹ s⁻¹	–	16.0599
GGPRS-LFTAS	12792.1 M⁻¹ s⁻¹	12792.1 M⁻¹ s⁻¹	–	–	33.3704	–
ERSLN-LTASG	1239.69 M⁻¹ s⁻¹	726.013 M⁻¹ s⁻¹	–	–	3.302	–
KTWRN-LTASG	0 M⁻¹ s⁻¹	690.17 M⁻¹ s⁻¹	–	–	6.7583	–
SQPTG-LTASG	–	–	12792.1 M⁻¹ s⁻¹	12792.1 M⁻¹ s⁻¹	–	33.1098
GFPQS-LMTAS	–	–	12792.1 M⁻¹ s⁻¹	10866.7 M⁻¹ s⁻¹	–	33.5105
YDIHF-LTASG	0 M⁻¹ s⁻¹	0 M⁻¹ s⁻¹	–	–	4.537	–
GHVRH-LLTAS	386.839 M⁻¹ s⁻¹	2545.25 M⁻¹ s⁻¹	–	–	25.4239	–
VKAYN-LTASG	–	–	9740.44 M⁻¹ s⁻¹	8941.32 M⁻¹ s⁻¹	–	20.8713
GAAHG-IFTAS	261.974 M⁻¹ s⁻¹	690.17 M⁻¹ s⁻¹	–	–	8.881	–
VKVFS-MTASG	–	–	4470.66 M⁻¹ s⁻¹	912.511 M⁻¹ s⁻¹	–	2.265
GRVAY-LSTAS	56.119 M⁻¹ s⁻¹	8941.32 M⁻¹ s⁻¹	–	–	26.5348	–

Further lines, with some results ahead:

Kobs (MMP-9; [3])	Kobs (MMP-2 [1]; [4])	Kobs (MMP-9; [6])	Kobs (MMP-2 [1]; [7])	Substance	relative probability (RP) (MMP-2 [2]; [5])	relative probability (RP) (MMP-2 [2]; [8])
5461.43 M⁻¹ s⁻¹	6688.74 M⁻¹ s⁻¹	–	–	SGPRS-MLNTA	32.6673	–
–	–	619.843 M⁻¹ s⁻¹	27.918 M⁻¹ s⁻¹	SGSLA-LQSTA	–	6.019
–	–	0 M⁻¹ s⁻¹	7015.91 M⁻¹ s⁻¹	GYFGN-LRTAS	–	26.0275
12792.1 M⁻¹ s⁻¹	12792.1 M⁻¹ s⁻¹	–	–	GAPRF-LSTAS	28.4443	–
231.616 M⁻¹ s⁻¹	5667.28 M⁻¹ s⁻¹	–	–	GWPNA-FLTAS	16.8865	–
–	–	1711.63 M⁻¹ s⁻¹	799.117 M⁻¹ s⁻¹	NKVYA-WTASG	–	0.6193
–	–	142.481 M⁻¹ s⁻¹	2157.02 M⁻¹ s⁻¹	ELMLS-MTASG	–	5.234
–	–	1112.44 M⁻¹ s⁻¹	2916.17 M⁻¹ s⁻¹	RLLLN-MTASG	–	13.7728
–	–	762.325 M⁻¹ s⁻¹	2097.28 M⁻¹ s⁻¹	SGYAN-MRRTA	–	22.6837
12792.1 M⁻¹ s⁻¹	12792.1 M⁻¹ s⁻¹	–	–	HRPRS-LTASG	33.3704	–
–	–	142.481 M⁻¹ s⁻¹	231.616 M⁻¹ s⁻¹	GKVSE-LITAS	–	24.0996
113.394 M⁻¹ s⁻¹	12792.1 M⁻¹ s⁻¹	–	–	MSWSA-LTASG	25.8217	–
–	–	1327.88 M⁻¹ s⁻¹	12792.1 M⁻¹ s⁻¹	GNVAN-LTASG	–	34.9662
355.093 M⁻¹ s⁻¹	12792.1 M⁻¹ s⁻¹	–	–	YPFGS-LTASG	21.9152	–
12792.1 M⁻¹ s⁻¹	12792.1 M⁻¹ s⁻¹	–	–	LSVFW-LTASG	13.7679	–
0 M⁻¹ s⁻¹	0 M⁻¹ s⁻¹	–	–	GHYHH-LMTAS	0	–
585.336 M⁻¹ s⁻¹	12792.1 M⁻¹ s⁻¹	–	–	MKWAA-YTASG	15.6012	–
–	–	0 M⁻¹ s⁻¹	8941.32 M⁻¹ s⁻¹	NRFSN-LTASG	–	24
4763.33 M⁻¹ s⁻¹	2615.58 M⁻¹ s⁻¹	–	–	KLGRA-LTASG	7.944	–

Kobs (MMP-9; [3])	Kobs (MMP-2 [1]; [4])	Kobs (MMP-9; [6])	Kobs (MMP-2 [1]; [7])	Substance	relative probability (RP) (MMP-2 [2]; [5])	relative probability (RP) (MMP-2 [2]; [8])
0 M⁻¹ s⁻¹	0 M⁻¹ s⁻¹	–	–	TTYMS-LTASG	0.07249	–
–	–	451.441 M⁻¹ s⁻¹	874.197 M⁻¹ s⁻¹	GSFRG-LRTAS	–	7.475
–	–	12792.1 M⁻¹ s⁻¹	12792.1 M⁻¹ s⁻¹	SIAFA-LTASG	–	17.8812
–	–	0 M⁻¹ s⁻¹	0 M⁻¹ s⁻¹	FSQLA-MTASG	–	5.241
3637.04 M⁻¹ s⁻¹	2837.92 M⁻¹ s⁻¹	–	–	RTPMA-MTASG	30.2676	–
–	–	0 M⁻¹ s⁻¹	0 M⁻¹ s⁻¹	GSGWA-LKKVT	–	0.09159
–	–	0 M⁻¹ s⁻¹	0 M⁻¹ s⁻¹	GQVDY-LMTAS	–	1.426
8941.32 M⁻¹ s⁻¹	7815.03 M⁻¹ s⁻¹	–	–	SRAYS-LTASG	18.7071	–
10866.7 M⁻¹ s⁻¹	7386.83 M⁻¹ s⁻¹	–	–	GLPMH-LTASG	30.095	–
–	–	142.481 M⁻¹ s⁻¹	292.668 M⁻¹ s⁻¹	GKMFH-LITAS	–	0.052
10866.7 M⁻¹ s⁻¹	12792.1 M⁻¹ s⁻¹	–	–	VRPRP-FTASG	32.5323	–
–	–	1071.29 M⁻¹ s⁻¹	418.952 M⁻¹ s⁻¹	TNPIM-LTASG	–	15.4441
–	–	1112.44 M⁻¹ s⁻¹	142.481 M⁻¹ s⁻¹	PRVML-LTASG	–	0.4692
–	–	292.668 M⁻¹ s⁻¹	12792.1 M⁻¹ s⁻¹	RILGY-LTASG	–	24.8925
7015.91 M⁻¹ s⁻¹	6131.32 M⁻¹ s⁻¹	–	–	RVPYG-LTASG	32.9966	–
12792.1 M⁻¹ s⁻¹	12792.1 M⁻¹ s⁻¹	–	–	VLWRA-LTASG	22.4074	–
3536.02 M⁻¹ s⁻¹	1981.53 M⁻¹ s⁻¹	–	–	SGHRS-LRSTA	7.851	–
–	–	0 M⁻¹ s⁻¹	6688.74 M⁻¹ s⁻¹	IAFSQ-LTASG	–	9.065
–	–	8941.32 M⁻¹ s⁻¹	3637.04 M⁻¹ s⁻¹	SGVRY-LYGTA	–	18.3724
